Read-outs that look alike come from different tables or passages of the source.
Legend:
[1] = test system: human cortical neurons; assay: Aβ neurotoxicity / survival of human cortical neurons (alamarBlue), compound added at time of Aβ1-40; type: cell-based
Protocol: (§1) Cultures of human cortical or hippocampal neurons were prepared using a modification of the procedure described in P. Seubert et al. (1992), Nature 359:325-327. Cortical or hippocampal tissue was dissociated by incubation in a trypsin/EDTA solution (0.05% trypsin +0.53 mM EDTA in HBSS; Gibco) for 20 minutes at 37° C. The trypsin was then inactivated by resuspending the cells in serum-containing medium (MEM/FBS): Modified Eagle's Medium (MEM) containing 1% glucose, 1 mM sodium pyruvate, 1 mM glutamine, and supplemented with 10% fetal bovine serum (Gibco). Cells were then pelleted by centrifugation and resuspended in a chemically-defined medium (MEM/B27): MEM containing B27 supplement (Gibco) in place of FBS. Polyethyleneimine (PEI)-coated 6.4-mm (96-well) dishes were rinsed once with MEM/FBS, and then seeded at 0.75-1.25×10^5 cells per well in 0.1 ml MEM/B27. Cultures were maintained in a H2 O-saturated incubator with an atmosphere of 95% air/5% CO2 at 37° C. The culture medium was exchanged twice weekly.
(§2) Amyloid-β (Aβ) stock solutions were prepared as 1 mM stocks in sterile ddH2 O immediately prior to addition to cultures. Rat cortical neurons were exposed to Aβ by removing the culture medium and replacing it with DMEM/N2 or DMEM/B27 containing Aβ1-40. Human cortical neurons were exposed to Aβ by removing the culture medium and replacing it with MEM, MEM/N2, or MEM/B27 containing Aβ1-40. Cultures were maintained for 2-4 days before neuronal survival was quantified using alamarBlue™.
(§3) The alamarBlue™ assay incorporated a proprietary fluorometric/colorimetric metabolic indicator (Alamar Biosciences, Inc.). Viable cells convert alamarBlue™ from an oxidized (non-fluorescent, blue) form to a reduced (fluorescent, red) form. Assays were performed by replacing the culture media with a 10% alamarBlue™ solution in DMEM (rat cortical cultures) or MEM (human cortical cultures). Reduction of alamarBlue™ was determined spectrofluorometrically using a Millipore Cytofluor 2350 Scanner (excitation, […]; emission, 590 nm) and CytoCalc™ software (Millipore Corporation).
The effect of the two benzenesulfonamide inhibitors of PLA2 in Example 2 were examined to determine the dose-dependence of their effect on neuronal survival in human cortical neuron cultures exposed to 0 μM, 25μM, or 50 μM of Aβ1-40 and varying doses of the benzenesulfonamide.
(§4) Human cortical neurons were treated with 50 μM Aβ1-40 and various inhibitors of PLA2 or PLC. Compounds were added at the time of Aβ1-40 treatment at concentrations 390 nM to 100 μM. Compounds were also added to neuronal cultures in the absence of Aβ1-40. Neuronal survival was determined after 3 days of treatment by alamarBlue®. IC50 is the dose of compound that inhibited Aβ-mediated neurotoxicity by 50%. […] Data represents the mean ± SD (n=3). ND, not detected at the concentration range used.

[2] = Compound toxicity to human cortical neurons in absence of Aβ1-40 (alamarBlue, 3 days); type: cell-based; conditions: human, cortical neurons
Protocol: as §1, §3, §4

[3] = test system: human cortical neurons; assay: as above; type: cell-based
Protocol: as §1, §3, §4

[4] = test system: Ca^+2 -independent PLA2; conditions: Ackermann et al. (1995); cited from earlier work
[5] = test system: cPLA2; conditions: Street et al. (1993); cited from earlier work
[6] = test system: human cortical neurons; assay: Aβ neurotoxicity in human cortical neurons (alamarBlue), 2 h pretreatment with inhibitor; type: cell-based; conditions: for Emax / IC50: Homo sapiens, Cortical neurone; for Emax: 72 h, read-out: Max Inh; for IC50: ND = not detected at the concentration range used, read-out: IC50 (dose that inhibited Aβ-mediated neurotoxicity by 50%)
Protocol: as §1, §2, §3
The effect of pretreating human cortical neuron cultures with the benzenesulfonamide PLA2 inhibitors and arachidonyl trifluoromethyl ketone prior to exposure to a neurotoxic concentration of Aβ1-40 was determined.
(§5) Human cortical neurons were treated with 50 μM Aβ1-40 and various inhibitors of PLA2. Compounds were added 2 hours prior to Aβ1-40 treatment at concentrations of 390 nM to 100 μM, and were then re-added at the time of Aβ1-40 treatment. Compounds were also added in an identical manner to neuronal cultures in the absence of Aβ1-40. Neuronal survival was determined after 3 days of treatment by alamarBlue®. IC50 is the dose of compound that inhibited Aβ-mediated neurotoxicity by 50%. […] Data represents the mean ± SD (n=3). ND, not detected at the concentration range used.

[7] = test system: TNF-α release by cultured human cortical microglia; assay: TNF-α release (ELISA) from Aβ1-40-stimulated human microglia; type: cell-based
Protocol: (§6) Cultures of human cortical or hippocampal astrocytes and microglia were prepared using a modification of the procedure described for cortical neurons. Cortical tissue from fetuses of 16 to 20 weeks of gestation was washed 3 times in Ca^2+ /Mg^2+ free Hanks balanced salt solution (CMF HBSS) and then dissociated by repeated pipetting. The solution was brought to a final volume of 80 ml CMF HBSS for approximately 10 ml of tissue. DNase (Sigma) was added to a final concentration of 0.05 mg/ml. 20 ml of the solution was passed through one 100 μm nylon cell strained (Falcon). The cells were then centrifuged for 5 minutes at 200×G in an IEC Clinical Centrifuge and resuspended in a trypsin/EDTA solution (0.05% trypsin+0.53 mM EDTA in HBSS; Gibco) and incubated for 20 minutes at 37°C. (10 ml of trypsin was added per 2-3 ml of tissue). The trypsin was then inactivated by adding (MEM/FBS): Modified Eagle's Medium (MEM) containing 1% glucose, 1 mM sodium pyruvate, 1 mM glutamine, and supplemented with 10% fetal bovine serum (JRH). After adding a final concentration of 0.05 mg/ml DNase the cells were resuspended and then pelleted by centrifugation and resuspended in MEM/FBS. 1.6×10^8 cells were seeded in a T-150 tissue culture flask coated with polyethyleneimine (PEI). (10% PEI (Sigma) was diluted 1:10 in H2 O, filtered through a […] unit and then diluted into 150 mM sodium borate pH 8.5 at 1:100. The flasks were coated overnight at room temperature, washed two times in PBS and coated with 20 ml/flask of MEM/FBS at 37° C. for at least one hour prior to plating cells.) Cultures were maintained in a H2 O-saturated incubator with an atmosphere of 95% air/5% CO2 at 37° C. The culture medium was changed one and four days after plating and the cultures were then left undisturbed for at least one week. After approximately two weeks in vitro, the flasks were gently shaken and floating microglia were collected and centrifuged for 5 minutes at 200×G in an IEC Clinical Centrifuge. The microglia were reseeded in 96 well tissue culture plates at a density of 5,000-40,000 cells/well in 125 μl in MEM/FBS. Astrocyte cultures were prepared by multiple passaging of the established mixed brain cell cultures. Each T-150 was incubated for 3-4 minutes at 37°C. with a trypsin/EDTA solution (see above). The trypsin was then inactivated by adding MEM/FBS. The cells were triturated and then pelleted by centrifugation and resuspended in MEM/FBS. The cells from one T-150 were seeded at a 1:30 to 1:5 dilution in T-150's not coated. Just prior to confluency the cells were repassaged by trypsinization as described above. This process was repeated until the cultures were >98% pure astrocytes.
(§7) Cultured microglial cells were treated with 50 μM of Aβ1-40 or vehicle only (Control). The levels of IL-1β, IL-6, and TNF-α released into the culture medium were determined by ELISA assay (R&D Systems) according to manufacturer's instructions.
(§8) The effect of two benzenesulfonamide inhibitors of PLA2 (European Patent Application 468 054) were examined on the activation of microglial cells by Aβ1-40 as in Example 1.
(§9) The effects of the benzenesulfonamide PLA2 inhibitor AN20606 and the selective cytosolic PLA2 inhibitor arachidonyl trifluoromethyl ketone (AN20579) were examined in cultured human cortical microglia for their selectivity for inhibiting microglia activation mediated by amyloid-βpeptide and lipopolysaccharides (LPS). LPS are a major constituent of the cell wall of gama-negative bacteria and are extensively used for generating inflammatory responses in cultured cells and in vivo.

[8] = test system: TNFα release by cultured human cortical microglia; assay: TNF release from LPS-stimulated human cortical microglia; type: cell-based
Protocol: as §6, §9

[9] = test system: IL-1β release by cultured human cortical microglia; assay: IL-1 release from LPS-stimulated human cortical microglia; type: cell-based
Protocol: as §6, §9

[10] = test system: IL-1β release by cultured human cortical microglia; assay: IL-1β release (ELISA) from Aβ1-40-stimulated human microglia; type: cell-based
Protocol: as §6, §7, §8, §9

[11] = test system: human cortical neurons; assay: Compound toxicity to human cortical neurons in absence of Aβ1-40, added as in pretreatment protocol; type: cell-based; conditions: no Aβ1-40, 3 days; for TD10 (concentration giving 10% loss of neuronal survival): n=3
Protocol: as §1, §3, §5

[12] = 50 μM Aβ1-40, compound 390 nM to 100 μM added at time of Aβ, 3 days, n=3
[13] = 50 μM Aβ1-40, compound 390 nM to 100 μM, 2 h pretreatment and re-added with Aβ, 3 days, n=3
[14] = 50 μM Aβ1-40, inhibitor 20 μM where present
[15] = 10 ng/ml LPS, inhibitor 20 μM where present
[16] = 50 μM Aβ1-40, 1 day, compound 0, 5, 10, 20 μM, FIG. 2

COc1ccc2c(c1)CC[C@@H]1[C@@H]2CC[C@]2(C)[C@@H](NCCCCCCN3C(=O)CCC3=O)CC[C@@H]12 [U73343]
Max Inh [1, 12]: 10% | CC50 at 72 h ([2]; no Aβ1-40, 3 days, 390 nM to 100 μM, n=3, ND = not detected at the concentration range used, read-out: TD50 (concentration giving 50% loss of neuronal survival)): 8 µM | TD10 (concentration giving 10% loss of neuronal survival) ([3]; no Aβ1-40, 3 days, 390 nM to 100 μM, n=3): 6 µM

CCN(CC)CCCC(C)Nc1c2ccc(Cl)cc2nc2ccc(OC)cc12 (stereo not drawn) [Quinacrine]
Max Inh [1, 12]: 2% | CC50 at 72 h [2]: 9 µM | TD10 (concentration giving 10% loss of neuronal survival) ([3]; human, 4320 min): 6 µM

O=C1O/C(=C/Br)CCC1c1cccc2ccccc12 (stereo not drawn) [Bromoenol Lactone, (e)-6-(bromomethylene)tetrahydro-3-(1-naphthalenyl)-2H-pyran-2-one]
inhibition of Ca^+2 -independent PLA2 activity [4]: capable of inhibiting | inhibition of cPLA2 [5]: capable of inhibiting | Emax [6, 13]: 41%

CCCCC/C=C\C/C=C\C/C=C\C/C=C\CCCC(=O)C(F)(F)F [AACOCF3, arachidonyl trifluoromethyl ketone]
inhibition of Ca^+2 -independent PLA2 activity [4]: capable of inhibiting | inhibition of cPLA2 [5]: capable of inhibiting | TNF Released [7, 14]: 54.8 ± 9.4 pg/mL | Aβ1-40-mediated TNFα release, selectivity versus LPS (in words) ([7]; Aβ1-40 versus LPS stimulation): selectively inhibited | activity at 20 µM ([7]; Homo sapiens, Microglia, 50 μM Aβ1-40 + 20 μM inhibitor, read-out: TNF Released, percent in parentheses (relative to Aβ1-40 alone)): 52% | TNF Released [8, 15]: 785 ± 50 pg/mL | activity at 20 µM ([8]; Homo sapiens, Microglia, 10 ng/ml LPS + 20 μM inhibitor, read-out: TNF Released, percent in parentheses (relative to LPS alone)): 161% | LPS-mediated cytokine release, TNF (in words) ([8]; LPS stimulation): actually enhanced | IL-1 Released [9, 15]: 51 ± 6.4 pg/mL | activity at 20 µM ([9]; Homo sapiens, Microglia, 10 ng/ml LPS + 20 μM inhibitor, read-out: IL-1 Released, percent in parentheses (relative to LPS alone)): 225% | LPS-mediated cytokine release, IL-1 (in words) ([9]; LPS stimulation): actually enhanced | IL-1 Released [10, 14]: 36 ± 7.2 pg/mL | Aβ1-40-mediated IL-1β release, selectivity versus LPS (in words) ([10]; Aβ1-40 versus LPS stimulation): selectively inhibited | activity at 20 µM ([10]; Homo sapiens, Microglia, 50 μM Aβ1-40 + 20 μM inhibitor, read-out: IL-1 Released, percent in parentheses (relative to Aβ1-40 alone)): 13% | neuronal death resulting from Aβ1-40 exposure (in words) ([6]; pretreatment two hours, three days, FIG. 6): substantially decreased neuronal death

CN(C)c1ccc(O)c2c1C[C@H]1C[C@H]3[C@H](N(C)C)C(O)=C(C(N)=O)C(=O)[C@@]3(O)C(O)=C1C2=O [Minocycline]
TD10 (concentration giving 10% loss of neuronal survival) [11]: 78 µM | Emax [6, 13]: 69% | IC50 [6, 13]: 71 µM

Oleoyloxyethyl Phosphocholine
TD10 (concentration giving 10% loss of neuronal survival) [11]: 17 µM | CC50 ([11]; n=3, ND = not detected at the concentration range used, read-out: TD50 (concentration giving 50% loss of neuronal survival)): 29 µM | Max Inh [6, 13]: 40%

CN(C(=O)/C=C/c1ccc(C#N)cc1)c1ccc(S(=O)(=O)NC2CCCCCC2)cc1 [AN20628]
amount of TNF-α released into the medium (in words) [7, 16]: marked and dose-dependent decrease | neuronal survival in the presence of pathogenic Aβ peptide (in words) ([1]; 0, 25 or 50 μM Aβ1-40, varying doses, FIG. 3, FIG. 4): dose-dependent increase in neuronal survival | Max Inh [1, 12]: 82% | IC50 ([1]; Homo sapiens, Cortical neurone, 72 h, 50 μM Aβ1-40, compound 390 nM to 100 μM added at time of Aβ, 3 days, n=3, ND = not detected at the concentration range used, read-out: IC50 (dose that inhibited Aβ-mediated neurotoxicity by 50%)): 8 µM | TD10 (concentration giving 10% loss of neuronal survival) ([3]; human, 4320 min): 73 µM | amount of IL-1β released into the medium (in words) [10, 16]: marked and dose-dependent decrease | Emax [6, 13]: 87% | IC50 [6, 13]: 4 µM

C[C@H]1c2cccc(O)c2C(O)=C2C(=O)[C@]3(O)C(O)=C(C(N)=O)C(=O)[C@@H](N(C)C)[C@@H]3[C@@H](O)[C@@H]21 [Doxycycline]
Emax [6, 13]: 0%

CCCCCCCCCCCCCCCC(=O)C(F)(F)F [palmitoyl trifluoromethyl ketone]
inhibition of Ca^+2 -independent PLA2 activity [4]: capable of inhibiting | inhibition of cPLA2 [5]: capable of inhibiting

CCCCCCCCCCCC=CC(C)(C)C=CCCCC(=O)O [DEDA, 7,7,-dimethyl-5,8-eicosadienoic acid]
Emax [6, 13]: 19%
